Laboratory results as given in PubChem BioAssay AID1996.
Converted amounts (≈) assume the structure as drawn.

Conditions: buffer; pH 7.4; 200.0 µM

| Compound | solubility kinetic |
| --- | --- |
| COC(=O)C1=C(Nc2ccccc2NC(=O)c2ccccc2C(=O)O)CSC1 | > 59.8 µg/mL |
| O=C(COc1ccccc1[N+](=O)[O-])Nc1ccc2oc(=O)ccc2c1 | 0.5 µg/mL (≈ 1.47 µM) |
| Cc1[nH]c(=O)[nH]c(=O)c1S(=O)(=O)N1CCCCC1 | > 41 µg/mL |
| O=c1oc2ccccc2nc1/C=C(\O)c1ccc(Br)cc1 | 19 µg/mL (≈ 55.2 µM) |
| CCN(C(=O)c1cccnc1SC)C12CC3CC(CC(C3)C1)C2 | 2.3 µg/mL (≈ 6.96 µM) |
| Cc1ccc(CNC(=S)NC2CCC(C(C)(C)C)CC2)cc1 (centres undefined) | < 0.3 µg/mL |
| COc1cc([N+](=O)[O-])ccc1NC(=O)Nc1cccnc1 | 1 µg/mL (≈ 3.47 µM) |
| Cn1c(-c2ccccc2)c[n+]2c1CCCCC2.[Br-] | > 46.1 µg/mL |
| Cc1c(C(=O)N2CCOCC2)sc(NC(=O)C(C)C)c1C#N | > 48.2 µg/mL |
| Cc1ccccc1Nc1c(-c2ccccn2)nc2c(C)cccn12 | 1 µg/mL (≈ 3.18 µM) |
| O=C(CSc1ccc2ccccc2n1)NCCCN1CCCC1=O | > 51.5 µg/mL |
| O=S(=O)(c1cccs1)N1CCC2(CC1)OCCO2 | > 43.4 µg/mL |
| CCCN1CCc2c(sc3nc(SC)n(-c4ccccc4)c(=O)c23)C1 | 33.9 µg/mL (≈ 91.2 µM) |
| CCOC(=O)C1(CCOC)CCN(C(=O)c2sccc2C)CC1 | > 50.9 µg/mL |
| N=C1c2ccccc2CN1c1cccc([N+](=O)[O-])c1 | > 38 µg/mL |
| CC(C)c1nnc(NC(=O)CCC(=O)NC2CC2)s1 | > 42.4 µg/mL |
| Cc1ccc(NC(=O)C(=O)NCCCN2CC(C(=O)O)CC2=O)cc1 (centres undefined) | > 52.1 µg/mL |
| O=C(NC(=S)NC1CCCCC1)c1ccc(Cl)cc1 | < 0.3 µg/mL |
| COc1ccc(C(C)NC(=O)C23CC4CC(CC(C4)C2)C3)cc1OC (centres undefined) | 40.2 µg/mL (≈ 117 µM) |
| Cc1cc(OCC(=O)N(C)C2CCCCC2)cc(C)c1Cl | 15.4 µg/mL (≈ 49.7 µM) |

| Compound | solubility kinetic |
| --- | --- |
| CC(=O)c1cccc(NC(=O)COC(=O)Cn2cnc3ccccc32)c1 | > 52.7 µg/mL |
| CN(C(=O)CCl)C1CCCc2ccccc21 (centres undefined) | 32.1 µg/mL (≈ 135 µM) |
| C=CCOc1ccc(CN(C)C(=O)C2CCCO2)cc1 (centres undefined) | > 41.3 µg/mL |
| COc1ccc(CNC(=O)C(C)OC(=O)c2cccc(N(C)C)c2)cc1 (centres undefined) | 37.8 µg/mL (≈ 106 µM) |
| O=C(Nc1ccccc1C(F)(F)F)C1CCCC1 | 30.4 µg/mL (≈ 118 µM) |
| c1ccc(CCN2CCC3(CC2)OCCO3)cc1 | 29.2 µg/mL (≈ 118 µM) |
| CCC(=O)N1CCN(c2ccccc2NC(=O)c2ccc([N+](=O)[O-])o2)CC1 | 32.4 µg/mL (≈ 87 µM) |
| Cc1nc2c(C)[n+](CC(=O)c3ccccc3)ccc2n1C.[Br-] | > 54 µg/mL |
| O=C(COC(=O)c1cccc(Cl)c1)Nc1ccc2[nH]c(=O)[nH]c2c1 | 0.8 µg/mL (≈ 2.31 µM) |
| COC(=O)c1cc(S(=O)(=O)N2CCC(C)CC2)cn1C | 41.9 µg/mL (≈ 139 µM) |
| COc1ccc(C2=NOC(C(=O)Nc3cc(C)on3)C2)cc1OC (centres undefined) | > 49.7 µg/mL |
| O=C1OC(N2C(=O)CC[C@H]2C(=O)Nc2ccc3c(c2)OCO3)c2ccccc21 (some centres undefined) | > 57.1 µg/mL |
| FC(F)(F)c1cccc(CN2CCN(c3ncccn3)CC2)c1 | 8.7 µg/mL (≈ 27 µM) |
| CCn1c(SCC(=O)Nc2ccc(C)cc2)nc(O)cc1=O | > 47.9 µg/mL |
| O=c1c2ccccc2n(CC(O)CN2CCCCC2)c2ccccc12 (centres undefined) | > 50.5 µg/mL |
| Cc1ccc2c(CN3CC(C)CC(C)C3)cc(=O)oc2c1C (centres undefined) | 3.3 µg/mL (≈ 11 µM) |
| COc1ccc(CNC(=S)Nc2ccc(Br)cc2)cc1 | < 0.4 µg/mL |
| Fc1ccccc1N1CCN(Cc2cnc(Cl)s2)CC1 | 37.1 µg/mL (≈ 119 µM) |
| CCCOc1ccc(Cl)cc1/C=C1/C(=O)ON=C1C | 29.2 µg/mL (≈ 104 µM) |
| CN(C)C(=O)Oc1cccc(NC(=O)c2ccccc2C(F)(F)F)c1 | 37.9 µg/mL (≈ 108 µM) |

| Compound | solubility kinetic |
| --- | --- |
| O=C(NCc1ccco1)c1ccc(-c2cccc(Cl)c2)o1 | 1.3 µg/mL (≈ 4.31 µM) |
| Cc1c(OCC(=O)N(C)C)ccc2c(-c3ccccc3)cc(=O)oc12 | 13.6 µg/mL (≈ 40.3 µM) |
| CCn1ncc(N2CCOCC2)c(Cl)c1=O | > 36.6 µg/mL |
| CCOc1ccc2[nH]c3c(NCCN(C)C)ncnc3c2c1 | > 44.9 µg/mL |
| CCOCCCn1c(=NC(C)=O)c(C#N)cc2c(=O)n3cccc(C)c3nc21 | 33 µg/mL (≈ 87 µM) |
| CSCC(=O)Nc1ccc(F)c(Cl)c1 | > 35.1 µg/mL |
| COc1ccc(C(=O)NCCN2CCOCC2)cc1[N+](=O)[O-] | > 46.4 µg/mL |
| O=c1c2ccccc2nc(-c2ccccc2)n1-c1ccccc1 | 43.6 µg/mL (≈ 146 µM) |
| Cc1ccc(NC(=S)Nc2ccc(F)cc2)cc1C | 12.2 µg/mL (≈ 44.5 µM) |
| O=C(CNC(=O)c1ccc(N2CCCC2=O)cc1)Nc1ccc(F)c(F)c1F | 5.5 µg/mL (≈ 14.1 µM) |
| COCc1nnc(NC(=O)c2cc3ccccc3o2)s1 | > 43.4 µg/mL |
| O=C(/C=C/c1ccccc1)NC(=S)Nc1ccccc1O | 0.5 µg/mL (≈ 1.68 µM) |
| O=C(OCC(=O)N1CCCC1)c1ccccc1O | 36.1 µg/mL (≈ 145 µM) |
| CN1C2CCC1CC(NC(=O)c1ccc([N+](=O)[O-])cc1)C2 (centres undefined) | > 43.4 µg/mL |
| CCCN1CCOC(CC(=O)Nc2ccc([N+](=O)[O-])cc2)C1=O (centres undefined) | 38 µg/mL (≈ 118 µM) |
| COc1ccc(Cl)cc1NC(=O)C1CC(c2ccccc2O)=NO1 (centres undefined) | 0.9 µg/mL (≈ 2.6 µM) |
| O=C(CN1C(=O)NC2(CCCC2)C1=O)Nc1cc(S(=O)(=O)N2CCCCC2)ccc1Cl | 65.8 µg/mL (≈ 140 µM) |
| COc1ccc(NC(=O)CN2C(=O)NC3(CCCC3)C2=O)cc1 | 40.1 µg/mL (≈ 126 µM) |
| Cn1ccsc1=NC(=O)c1ccccc1OC(F)F | 38.7 µg/mL (≈ 136 µM) |
